Values joined by “and” are separate entries in the source; they are usually repeats but may differ in a detail not shown here. Equal values may be shown once.
Experiments:
[1] = Hydrolysis of 2 to 3 in solution and during skin penetration; type: physicochemical
[2] = tested on: AA-induced edema; experiment: AA-induced ear edema, topical antiinflammatory activity; type: in vivo, Male CF1 mice; details: for % Inhibition: 3 h pretreatment
Description: The AA model was also used to evaluate and compare PEG ointment formulations containing 2-phenylmethyl-1-naphthol with oil/water cream formulations containing 2-phenylmethyl-1-naphthol. These comparisons are illustrated in Examples 5 to 7.
Male 18-20 gram CF1 mice were used in these experiments. AA was made up fresh daily in acetone at a concentration of about 100 mg/ml. 10 μl of the AA solution (1 mg AA) was applied to the inner surface of the ear to induce swelling. […] Control animals were pretreated about 3 hours before AA application with placebo vehicles (drug free ointment or cream) with 5 mg of vehicle applied to both ears. Drug-treated animals were pretreated about 3 hours before AA application with 5 mg of the vehicle containing active drug, applied to both ears. AA was applied to 1 ear of each mouse. One hour after AA challenge, the animals were euthanized by cervical dislocation and both ears were removed. 6 mm disks were then taken using a skin biopsy punch and weighed. Swelling was determined as the difference between the weights of the AA and vehicle treated ears. Percent inhibition of swelling was calculated as follows: [formula]
Table 7 summarizes the data for PEG ointment and oil/water cream formulations containing various concentrations of active compound. Each data point is the average of 2 experiments with 10 animals per treatment cell.

[3] = tested on: 5-lipoxygenase; details: cited from earlier work
[4] = In vitro penetration through (inflammed) hairless mouse skin; type: in vitro ADME; details: Study I, 25 mg/0.1 ml acetone
Description: The acetone vehicles were allowed to dry. […] The donor chamber was sealed with parafilm.
Studies were performed in which skin inflammation was induced in hairless mice in vivo, and permeability of that skin was evaluated in vitro. The three studies differed in the methods of producing inflammation. A non-inflammed control was run for each. The formulations tested were the oil/water cream and PEG ointment containing excipients (See Table 2) as in the previous example. There was no difference between the control and inflammed skin in active compound flux in all studies and for all formulations, except study II with 5% cream. […] As with human skin, acetone and cream vehicles consistently gave higher skin penetration rates than the PEG ointment.

[5] = In vivo absorption: excretion of radioactivity in rat urine and feces; design: species or system Male Sprague-Dawley rats; details: for Percent of Dose Excreted in Feces / Percent of Dose Excreted in Urine / Percent of Dose Excreted, Total: IV 5 mg/kg
Description: Approximately 10 mg of 14C-2-phenylmethyl-1-naphthol and 4.99 g of unlabeled 2-phenylmethyl-1-naphthol were used in the preparation of a 100 g 5% ointment or cream. The ointment was a PEG-based ointment and the cream was an oil-in-water emulsion. The specific activities for the ointment and cream were 2.71 and 2.78 uCi/g, respectively. An IV dosing solution (2.5 mg/mL) was prepared prior to dose administration by dissolving radiolabeled 14C-2-phenylmethyl-1-naphthol and unlabeled compound (1:1.5 ratio) in a PEG 400/water (60/40 v/v) solution.
Male Sprague-Dawley rats weighing 240-300 g were used for the studies. Sixteen rats were shaved on the back one day prior to the treatment. Eight of the rats had the application site abraded by a diamond-tipped marker (2 parallel lines and 2 interceding lines). The abrasion penetrated only the stratum corneum, but not the dermis. A 0.5 g dose of 14C-2-phenylmethyl-1-naphthol ointment or cream was applied to an area of approximately 4 cm^2 on 4 nonabraded and 4 abraded rats. The treatment site was covered with gauze and occluded with a dental dam. It was further secured by micropore tape and a strip of adhesive elastoplast. Each rat was placed in an open metabolism cage. […] Four other rats weighing 270-320 g were given an intravenous dose.
In order to determine the percent of dose in the ointment or cream that was absorbed percutaneously into the systemic circulation, an IV dose of 14C-2-phenylmethyl-1-naphthol was given to rats. The total radioactivity excreted after the IV dose serves as a reference for evaluation of topical absorption. […] The reason for the low radioactivity recovery is unknown. The percutaneous absorption from the ointment was about 2% of the applied dose. On the other hand, absorption from the cream was much higher and was about 28% of the dose.

For `CC(=O)Oc1c(Cc2ccccc2)ccc2c1ccn2C` [compound 2, 1-methyl-4-acetoxy-5-phenylmethyl indole], which hydrolysis [1] is on record?
The hydrolysis was “hydrolyzes to 1-methyl-4-hydroxy-5-phenylmethyl indole (3)”.

Which “% Inhibition” value ([2]; PEG ointment, 0.5% 1) does the source give for `Oc1c(Cc2ccccc2)ccc2ccccc12` [compound 1, 2-(phenylmethyl)-1-naphthol] here?
The value was 15%.

What about the “% Inhibition” value ([2]; PEG ointment, 1% 1) of the same compound?
Its value is 62%.

And the “% Inhibition” value ([2]; PEG ointment, 5% 1)?
Its value is 70%.

And the “% Inhibition” value ([2]; PEG ointment, 10% 1)?
The value was 90%.

And the “% Inhibition” value ([2]; cream, 0.5% 1)?
Its value is 26%.

What about the “% Inhibition” value ([2]; cream, 1% 1) of the same compound?
Its value is 60%.

And the “% Inhibition” value ([2]; cream, 5% 1)?
The value was 86%.

What about the “% Inhibition” value ([2]; cream, 10% 1) of the same compound?
The value was 87%.

And the “inhibiting the edema induced by topical arachidonic acid” value ([2]; mouse, in vivo)?
Its value is “very potent in inhibiting the edema”.

And the “inhibition of 5-lipoxygenase” value [3]?
The value was “exceptionally potent inhibitors of 5-lipoxygenase”.

And the “Lag Time” value ([4]; AA inflammed skin)?
The value was 13.8 ± 1.3 h.

And the “Lag Time” value ([4]; control skin)?
The value was 10.8 ± 1.7 h.

For `Oc1c(Cc2ccccc2)ccc2ccccc12` [14C-1, 14C-2-phenylmethyl-1-naphthol], which “Percent of Dose Excreted in Feces” value ([5]; individual rats, 5 mg/kg) is on record?
The value was 38.86% and 38.32% and 40.39% and 37.91%.

And the “Percent of Dose Excreted in Urine” value ([5]; individual rats, 5 mg/kg)?
The value was 8.55% and 7.84% and 8.96% and 8.74%.

What about the “Percent of Dose Excreted, Total” value ([5]; individual rats, 5 mg/kg) of the same compound?
Its value is 47.41% and 46.16% and 49.35% and 46.65%.

And the “Percent of Dose Excreted in Feces” value ([5]; mean of 4 rats)?
Its value is 38.87%.

What about the “Percent of Dose Excreted in Urine” value ([5]; mean of 4 rats) of the same compound?
Its value is 8.52%.

What about the “Percent of Dose Excreted, Total” value ([5]; mean of 4 rats) of the same compound?
The value was 47.39%.

And the percutaneous absorption ([5]; from PEG ointment, percent of applied dose)?
The percutaneous absorption was “about 2%”.

What about the percutaneous absorption ([5]; from cream, percent of dose) of the same compound?
Its percutaneous absorption is “about 28%”.

And the “detectable radioactivity in the urine” value ([5]; topical ointment or cream, daily collection)?
The value was “no detectable radioactivity was found in the urine”.
